Measurements as given in article PMC9692753, “Pentapeptide-Zinc Chelate from Sweet Almond Expeller Amandin Hydrolysates: Structural and Physicochemical Characteristics, Stability and Zinc Transport Ability In Vitro” (Molecules, 2022).
Marks after values point to notes of the source that are not given here. Where no end group is shown, it is not given here.

Key:
[1] = Thermal stability of zinc solubility (boiling water); conditions: chelate 1 mg/mL in ultrapure water, zinc sulphate and zinc gluconate 100 μg/mL; boiling water 10, 20, 40, 60 min; zinc in supernatant / total zinc; PAR method; n ≥ 3; Figure 7
Protocol: SAEAH peptide-zinc chelate solution (1 mg/mL, dispersed in ultrapure water) was incubated in boiling water for 10, 20, 40 and 60 min [37]. After centrifugation at 6000× g for 15 min, the supernatant was collected for zinc content determination.

[2] = tested on: Caco-2 cells; assay: Cell viability of Caco-2 cells (MTT method); format: cell-based
Protocol: In addition, effects of ZnSO4/zinc gluconate and peptide-zinc chelate on cell viability were measured using the MTT method [38].

[3] = Zinc-chelating ability assay (PAR colorimetric method); format: binding; conditions: sample in 0.1 mol/L HEPES-KOH buffer, DTT 8 mmol/L, ZnSO4 250 μmol/L, 37 °C 10 min, absorbance at 500 nm, n ≥ 3
Protocol: Zinc-chelating ability was determined using the PAR colorimetric method. […] The mixed solution was stirred (180 r/min) at 37 °C for 10 min, and then 250 μL PAR (0.2 mmol/L, pH 7.5) was added. After incubation at 37 °C for 3 min, the absorbance at 500 nm was read. […] Zinc-chelating capacity was calculated as follows:(1) Zinc chelating ability mg/g=Cc−Cs× 65.38×10^−3×V /M where, Cc (μmol/L) is the zinc concentration in the reaction solution without samples; Cs is the zinc concentration in reaction solution after the chelating reaction (μmol/L); V is the volume of the reaction solution; M is the mass of the samples (g); and 65.38 is the mol mass of zinc (g/mol).

Row | Compound | Zinc solubility stability against incubation at 100 °C (result in words) [1] | Cytotoxicity toward Caco-2 cells [2] | Zinc chelating capacity [3]
1 | O=C([O-])[C@H](O)[C@@H](O)[C@H](O)[C@H](O)CO.O=C([O-])[C@H](O)[C@@H](O)[C@H](O)[C@H](O)CO.[Zn+2] [zinc gluconate] | not reduced significantly | no significant (p > 0.05) cytotoxicity | 
2 | VDLVAEVPRGL [peptide identified in sweet almond expeller amandin hydrolysates] |  |  | 4.33 ± 0.33 ^e mg/g
3 | O=C(O)CN(CCN(CC(=O)O)CC(=O)O)CC(=O)O [EDTA] |  |  | 57.17 ± 2.63 ^d mg/g
